Source: PMC12399569, “Disruption of Spike Priming in Virus Entry: Tetrandrine as a Pan‐Coronavirus Inhibitor” (MedComm, 2025)
pKd: −log10 of the molar value.

Experiments:
Format in all cases: binding
HCoV-229E Spike = biological target: T1, HCoV-229E Spike (Human coronavirus 229E, UniProt P15423); assay: SPR (Reichert4, CM5 chip, Spike immobilised)
T1 construct: gene S
Description: SPR (Reichert4, CM5 chip, Spike immobilised) on HCoV-229E Spike | we observed its interaction with the Spike proteins of various coronaviruses in vitro (Figure 5C)

HCoV-OC43 Spike = biological target: T2, HCoV-OC43 Spike (Human coronavirus OC43, UniProt P36334); assay: SPR (Reichert4, CM5 chip, Spike immobilised)
T2 construct: gene S
T2 sequence (P36334 14-1353): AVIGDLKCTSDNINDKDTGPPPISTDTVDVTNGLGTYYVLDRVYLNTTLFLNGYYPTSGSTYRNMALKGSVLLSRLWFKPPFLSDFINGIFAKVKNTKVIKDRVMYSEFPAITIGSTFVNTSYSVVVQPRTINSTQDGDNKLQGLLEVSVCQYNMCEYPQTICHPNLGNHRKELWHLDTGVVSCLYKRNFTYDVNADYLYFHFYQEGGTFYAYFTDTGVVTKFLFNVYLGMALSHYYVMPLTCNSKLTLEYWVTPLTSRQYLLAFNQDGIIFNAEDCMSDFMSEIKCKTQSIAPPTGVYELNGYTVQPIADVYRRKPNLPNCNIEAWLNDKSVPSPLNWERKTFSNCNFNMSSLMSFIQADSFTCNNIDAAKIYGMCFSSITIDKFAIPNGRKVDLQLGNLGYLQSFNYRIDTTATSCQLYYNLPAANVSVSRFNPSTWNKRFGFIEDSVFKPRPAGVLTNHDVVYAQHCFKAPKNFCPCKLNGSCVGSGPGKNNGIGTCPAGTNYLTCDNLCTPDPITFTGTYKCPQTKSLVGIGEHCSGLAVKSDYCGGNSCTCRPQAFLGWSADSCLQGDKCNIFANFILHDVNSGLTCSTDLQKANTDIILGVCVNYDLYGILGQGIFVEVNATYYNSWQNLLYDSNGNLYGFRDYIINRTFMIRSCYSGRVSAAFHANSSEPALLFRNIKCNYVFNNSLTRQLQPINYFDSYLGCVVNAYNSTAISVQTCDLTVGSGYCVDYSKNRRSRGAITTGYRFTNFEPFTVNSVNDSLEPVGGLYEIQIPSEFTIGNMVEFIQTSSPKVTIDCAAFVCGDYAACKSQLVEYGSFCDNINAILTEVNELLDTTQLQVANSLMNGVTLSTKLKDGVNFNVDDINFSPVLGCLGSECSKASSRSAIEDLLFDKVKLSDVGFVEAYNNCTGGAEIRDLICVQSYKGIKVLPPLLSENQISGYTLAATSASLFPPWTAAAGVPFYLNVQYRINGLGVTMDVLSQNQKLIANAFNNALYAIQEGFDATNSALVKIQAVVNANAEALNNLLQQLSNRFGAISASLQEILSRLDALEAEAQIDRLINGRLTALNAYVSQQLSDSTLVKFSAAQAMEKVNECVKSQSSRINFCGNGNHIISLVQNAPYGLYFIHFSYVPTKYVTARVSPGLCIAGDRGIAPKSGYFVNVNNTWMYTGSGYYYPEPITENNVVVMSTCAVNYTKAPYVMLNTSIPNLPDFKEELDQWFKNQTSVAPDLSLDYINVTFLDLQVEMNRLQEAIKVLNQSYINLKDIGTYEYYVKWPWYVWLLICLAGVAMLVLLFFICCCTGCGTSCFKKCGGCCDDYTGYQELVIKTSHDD
Description: SPR (Reichert4, CM5 chip, Spike immobilised) on HCoV-OC43 Spike | we observed its interaction with the Spike proteins of various coronaviruses in vitro (Figure 5C)

hTMPRSS2 = biological target: T3, hTMPRSS2 (Homo sapiens, UniProt O15393); assay: SPR (CM5 chip, hTMPRSS2 immobilised)
T3 construct: gene TMPRSS2; purified protein; immobilised on CM5 chip
T3 sequence (O15393 whole entry): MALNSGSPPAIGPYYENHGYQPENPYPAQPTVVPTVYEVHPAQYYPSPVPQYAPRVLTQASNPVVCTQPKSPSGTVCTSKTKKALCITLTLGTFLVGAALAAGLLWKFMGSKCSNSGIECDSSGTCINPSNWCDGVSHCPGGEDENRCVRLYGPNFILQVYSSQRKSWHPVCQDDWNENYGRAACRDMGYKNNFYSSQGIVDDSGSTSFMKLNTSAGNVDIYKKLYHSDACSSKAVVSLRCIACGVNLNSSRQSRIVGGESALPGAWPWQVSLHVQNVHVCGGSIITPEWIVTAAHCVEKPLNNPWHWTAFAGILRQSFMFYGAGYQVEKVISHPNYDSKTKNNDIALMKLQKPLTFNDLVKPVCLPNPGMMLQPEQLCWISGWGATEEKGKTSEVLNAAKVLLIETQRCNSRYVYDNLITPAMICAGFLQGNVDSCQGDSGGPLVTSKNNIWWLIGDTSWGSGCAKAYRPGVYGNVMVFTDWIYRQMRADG
Description: SPR (CM5 chip, hTMPRSS2 immobilised) on hTMPRSS2 | Through SPR assay, we validated that tetrandrine could also bind to TMPRSS2

T1 sequence (P15423 16-1173): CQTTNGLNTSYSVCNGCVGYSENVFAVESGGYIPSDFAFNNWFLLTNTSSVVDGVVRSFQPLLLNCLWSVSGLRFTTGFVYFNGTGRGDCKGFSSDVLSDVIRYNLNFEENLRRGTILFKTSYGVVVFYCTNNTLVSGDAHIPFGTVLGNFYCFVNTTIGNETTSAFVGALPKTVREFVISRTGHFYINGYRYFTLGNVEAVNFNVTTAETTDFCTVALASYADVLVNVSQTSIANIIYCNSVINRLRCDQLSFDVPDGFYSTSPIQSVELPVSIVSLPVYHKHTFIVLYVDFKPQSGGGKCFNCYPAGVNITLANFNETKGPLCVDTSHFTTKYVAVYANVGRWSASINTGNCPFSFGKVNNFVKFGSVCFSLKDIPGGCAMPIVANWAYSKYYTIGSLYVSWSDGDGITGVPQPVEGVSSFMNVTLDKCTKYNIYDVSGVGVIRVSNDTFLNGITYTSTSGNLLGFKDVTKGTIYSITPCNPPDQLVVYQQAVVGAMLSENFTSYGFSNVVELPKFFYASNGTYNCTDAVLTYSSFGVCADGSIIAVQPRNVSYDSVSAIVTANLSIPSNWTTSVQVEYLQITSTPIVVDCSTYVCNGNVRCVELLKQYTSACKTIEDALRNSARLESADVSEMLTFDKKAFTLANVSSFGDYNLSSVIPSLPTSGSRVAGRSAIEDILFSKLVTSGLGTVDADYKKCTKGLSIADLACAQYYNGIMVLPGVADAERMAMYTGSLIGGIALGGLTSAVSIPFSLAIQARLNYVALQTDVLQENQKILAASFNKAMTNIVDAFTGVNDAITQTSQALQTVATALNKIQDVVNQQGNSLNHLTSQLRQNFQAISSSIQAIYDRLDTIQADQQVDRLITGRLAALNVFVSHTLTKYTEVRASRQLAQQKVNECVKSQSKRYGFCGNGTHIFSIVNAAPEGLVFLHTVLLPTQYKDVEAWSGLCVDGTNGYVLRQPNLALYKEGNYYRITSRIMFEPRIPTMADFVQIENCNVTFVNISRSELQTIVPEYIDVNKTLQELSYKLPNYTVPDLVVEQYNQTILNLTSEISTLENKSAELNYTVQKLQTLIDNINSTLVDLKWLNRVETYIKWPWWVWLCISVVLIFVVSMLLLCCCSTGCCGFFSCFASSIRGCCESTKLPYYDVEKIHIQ

SMILES: COc1ccc2cc1Oc1ccc(cc1)C[C@H]1c3cc(c(OC)cc3CCN1C)Oc1c(OC)c(OC)cc3c1[C@H](C2)N(C)CC3 [tetrandrine]
- pKd (HCoV-229E Spike): ~6.28
- pKd (HCoV-OC43 Spike): ~4.67
- pKd (hTMPRSS2): 5.34
